From publication PMC10434283, “A Novel Two-Component Bacteriocin, Acidicin P, and Its Key Residues for Inhibiting Listeria monocytogenes by Targeting the Cell Membrane” (Microbiology Spectrum, 2023)

Key:
L. monocytogenes = assay: Agar well diffusion assay of the mutations; format: cell-based, Listeria monocytogenes; details: BHI agar, 10^5 CFU/mL, 40 μL peptide per well, 24 h at 30°C
Source text: (§1) The antimicrobial spectrum was investigated using the indicator strains Streptococcus agalactiae 10465, Listeria monocytogenes 1.10753, enterotoxigenic Escherichia coli K88, vancomycin-resistant Enterococcus faecalis V583, Salmonella enterica serovar Typhimurium 14028, methicillin-resistant Staphylococcus aureus, and Bacillus cereus 1.1846. L. monocytogenes 1.10753 was used for growth curve measurement with a microtiter plate assay system. The indicator (at 1 × 10^5 CFU/mL) and the peptide (at 2-fold dilutions) were added to a final volume of 200 μL in each well. The bacterial growth was monitored with Bioscreen C (OyGrowth Curves Ab Ltd.) at 600 nm at 30°C. The MIC was defined as the total amount of Adpα, Adpβ, and acidicin P (the complementary peptides combined with equal amounts) that inhibited the growth of the indicator strain. The agar well diffusion method was used to investigate the antimicrobial activity of the mutations. The L. monocytogenes was inoculated in a brain heart infusion (BHI) agar plate as an indicator at a concentration of 10^5 CFU/mL. The peptide mutants (40 μL) were added to the wells (5 mm), and the plates were incubated for 24 h at 30°C.

[1] = test system: Listeria monocytogenes 1.10753; assay: MIC by microtiter plate growth curve assay; format: cell-based; details: for growth rate of L. monocytogenes: peptide individually, at any concentration; for MIC: microtiter growth curve, 1 × 10^5 CFU/mL, 30°C, 600 nm
Source text: as §1

[2] = test system: L. monocytogenes cell membrane; assay: Cytoplasmic membrane permeability assay with propidium iodide; format: cell-based, Listeria monocytogenes; details: positive control, 1× MIC
Procedure: Pretreatment of L. monocytogenes cells for the cytoplasmic membrane permeability assay was similar to that for the PMF assay. The cells were resuspended in 1 mL PBS and treated with different concentrations of acidicin P at 30°C for 30 min. The treated cells were stained with 10 μg/mL propidium iodide (PI, Bioss) in the dark for 15 min. Emission spectra of the mixture were recorded at 615 nm upon excitation at 535 nm with a Synergy H4 device (BioTek).

Substance	antimicrobial activity compared to the wild type (L. monocytogenes)	also measured
ANKMAYNVGKAISRIMRRVR [R1A (Adpα)-D12A (Adpβ), acidicin P mutant pair]	no detrimental effect	–
KKKRGFWYHVGDAVTSFGRGFASAFG [Adpβ, 26-residue mature β peptide of the two-component bacteriocin acidicin P, obtained by solid-phase peptide synthesis]	–	growth rate of L. monocytogenes [1]: not affected; MIC ([1]; ratio α:β 0:1 (Adpβ alone)): / (No antimicrobial activity observed in the range of 1.56 to 200 μg/mL acidicin P)
RNKMAYAVGKAISAIMRRVR [N7A//R14A (Adpα)-D12A//S16A//R19A (Adpβ), acidicin P mutant pair: Adpα N7A, R14A with Adpβ D12A, S16A, R19A]	significantly decreased	–
RNKMAYAVGKAISRIMRRVR [N7A (Adpα)-S16A//R19A (Adpβ), acidicin P mutant pair: Adpα N7A with Adpβ S16A, R19A]	significantly decreased	–
RNKMAYNVGKAISAIMRRVR [R14A (Adpα)-D12A (Adpβ), acidicin P mutant pair: Adpα R14A with Adpβ D12A]	significantly decreased	–
RNKMAYNVGKAISRIMRAVR [R18A (Adpα)-K2A (Adpβ), acidicin P mutant pair: Adpα R18A with Adpβ K2A]	no detrimental effect	–
RNKMAYNVGKAISRIMRRVR [Adpα, 20-residue mature α peptide of the two-component bacteriocin acidicin P, obtained by solid-phase peptide synthesis]	–	growth rate of L. monocytogenes [1]: not affected; MIC ([1]; ratio α:β 1:0 (Adpα alone)): / (No antimicrobial activity observed in the range of 1.56 to 200 μg/mL acidicin P)
RNKMIYNVIKAISRIMRRVR [A5I//G9I (Adpα)-S16I//G20I (Adpβ), acidicin P mutant pair: Adpα A5I, G9I with Adpβ S16I, G20I]	significantly decreased	bactericidal zone (L. monocytogenes): no bactericidal zone was observed
nisin	–	PI fluorescence versus untreated cells [2]: higher fluorescence
